Assays:
TGFβ1 = details: through a GLI2 inhibitory mechanism; Didiasova et al., 2017; cited from earlier work
[1] = tested on: fibroblast activation and tumor-fibroblast crosstalk; details: Fujiwara et al., 2020; cited from earlier work
[2] = tested on: cancer-associated fibroblasts; details: Aboulkheyr Es et al., 2020; cited from earlier work
[3] = tested on: lung, liver and colon cancer; details: combination; Qin et al., 2020; cited from earlier work
[4] = tested on: in vitro FOXC1+ cancer model; details: concurrent treatment with Wnt signaling inhibition; Ray et al., 2015b; cited from earlier work
[5] = tested on: CXCR4-mediated invasion and metastasis; details: Pan et al., 2018; cited from earlier work
prostate cancer = details: Gravina et al., 2015; cited from earlier work
[6] = tested on: cancer stem cells in AML and glioblastoma; details: Hira et al., 2020; cited from earlier work
TNBC [7] = details: Raninga et al., 2020; cited from earlier work
[8] = tested on: ER+LN-breast cancer patients; experiment: Adjuvant chemotherapy added to adjuvant Tamoxifen, all-cause mortality (SCAN-B dataset); assay type: in vivo, human; details: FOXC1 greater than 60th percentile or VERESCA FOXC1 IHC Score of 2; adjuvant Tamoxifen X 5 years with or without adjuvant chemotherapy
From the text: The prognostic utility of the VERESCA® FOXC1 IHC assay and the VERESCA® FOXC1Clin Criteria recurrence risk score was additionally validated in a second independent clinical trial dataset (SCAN-B) comprising 3207 breast cancer patients for whom clinical, treatment, gene expression data and outcomes data (Overall Survival) were available.
FOXC1 expression cutoff value was 60th percentile of expression of FOXC1 mRNA on qRTPCR, 60th percentile of expression of FOXC1 mRNA on RNA-Seq, or FOXC1 Score of 2 using VERESCA® FOXC1 IHC kit. FOXC1 expression less than the 60th percentile (FOXC1<60TH % ILE) by mRNA EXPRESSION or <VERESCA® FOXC1 IHC Score of 2 predicts LOW RISK and efficacy of the current standard of care which is adjuvant Tamoxifen X 5 years) in successfully reducing disease recurrence risk, and its resultant impact on all-cause mortality, without the need for additional/adjuvant chemotherapy.
The ability of the VERESCA® FOXC1Clin criteria recurrence risk score to predict a statistically significant decrease in all-cause mortality rate in the 8-year period post-diagnosis in response to having received adjuvant chemotherapy in addition to adjuvant Tamoxifen therapy was validated in SCAN-B clinical trial dataset (Odds Ratio 6.477 [Cl 2.974-14.107], p=0.0000001).

TNBC cells = details: cited from earlier work
[9] = tested on: ER and or PR-positive cells; details: Wang et al., 2015; cited from earlier work
binding of SOX9 to FOXC1 = details: Tang et al., 2020; cited from earlier work
ER+ breast cancer = details: Kornblum et al., 2018; cited from earlier work
TNBC [10] = details: two separate Phase II trials (Jovanovic et al., 2017; Park et al., 2018); cited from earlier work
leukemia stem cells = details: Fukushima et al., 2016; cited from earlier work
GLI2 = details: abrogates leukemia stem cell dormancy; Sadarangani et al., 2015; cited from earlier work
breast cancer = details: Ginestier et al., 2010; cited from earlier work
gastric cancer = details: Wang et al., 2016b; cited from earlier work
[11] = tested on: HER2-positive breast cancer; details: Singh et al., 2013, cited from earlier work
[12] = tested on: breast CSC count in preoperative tumors; details: Goldstein et al., 2020; cited from earlier work
TNBC patients = experiment: I-SPY2 neoadjuvant Durvalumab arm, pathologic complete response by MK167+FOXC1 predictor; assay type: in vivo, human; details: Durvalumab Arm: Olaparib+Paclitaxel+Durvalumab
Protocol: (§1) Methods. 41 Pre-NACT tumor biopsy MK167 and FOXC1 mRNA expression values were retrospectively obtained from TNBC patients and HER2 negative ER+ breast cancer patients who had been enrolled and treated in the I-SPY2 clinical trial (Durvalumab arm: 21, Control arm: 20) and correlated with the rate of observed pathologic complete response (pCR). The area under the curve (AUC) of each model was calculated and used to determine suitable cutoff values to maximize Negative Predictive Value (NPV) and Sensitivity for pCR prediction.
as §1, with “TNBC” for “TNBC patients and HER2 negative ER+ breast cancer”

[13] = tested on: HER2 negative ER+ breast cancer patients; experiment: as above; assay type: in vivo, human; details: FIG. 16
Protocol: as §1

Which “fibrosis / TGFβ1” value (TGFβ1) does the source give for Cc1ccc(=O)n(-c2ccccc2)c1 [Pirfenidone] here?
The value was “decrease fibrosis by decreasing TGFβ1”.

What about the “fibroblast activation and tumor-fibroblast crosstalk in the TME” value [1] of the same compound?
The value was “capable of inhibiting fibroblast activation and tumor-fibroblast crosstalk”.

And the “immunosuppressive capacity of cancer-associated fibroblasts” value [2]?
Its value is “successful in reducing immunosuppressive capacity”.

And the “therapeutic benefit of PD1/PDL1 immune checkpoint blockade” value [3]?
Its value is “augment the observed therapeutic benefit”.

With CC(C)C[C@H](NC(=O)[C@H](Cc1ccccc1)NC(=O)c1cnccn1)B(O)O [Bortezomib] as the compound, how does the “emergence of resistant clones / cancer stem cell escape” value [4] read?
The value was “prevented the emergence of such resistant clones”.

With c1cc(CN2CCCNCCNCCCNCC2)ccc1CN1CCCNCCNCCCNCC1 [Plerixafor] as the compound, how does the “CXCR4-mediated invasion and metastasis” value [5] read?
The value was “successful in reversing the CXCR4-mediated invasion and metastasis”.

And the “incidence of bone metastasis” value (prostate cancer)?
Its value is “successfully reduce the incidence of bone metastasis”.

What about the “mobilization of cancer stem cells from their niche” value [6] of the same compound?
Its value is “mobilize cancer stem cells from their niche”.

Which results are given for C[C@@]12OC(=O)[C@]1([C@@H](O)[C@@H]1C=CCCC1)NC(=O)[C@@H]2CCCl [Marizomib]?
development of lung and brain metastasis (TNBC [7]): significantly reduced the development of lung and brain metastasis; tumor growth (TNBC [7]): marked decline in tumor growth

For CC/C(=C(\c1ccccc1)c1ccc(OCCN(C)C)cc1)c1ccccc1 [Tamoxifen], which “risk of death (all-cause mortality)” value [8] is on record?
Its value is “greater than 24%”.

What does the source list for CN(C)C/C=C/C(=O)Nc1ccc(C(=O)Nc2cccc(Nc3ncc(Cl)c(-c4c[nH]c5ccccc45)n3)c2)cc1 [THZ1]?
sensitivity of cell proliferation (TNBC cells; CDK7 inhibitor, Wang et al., 2015): selectively sensitive; apoptotic cell death (TNBC cells; Tang et al., 2020): increasing apoptotic cell death; effect of treatment on cells [9]: largely unaffected; binding of SOX9 to FOXC1 and enhancer/SE-associated transcription factors (binding of SOX9 to FOXC1): significantly disrupted

What does the source list for CO[C@H]1C[C@@H]2CC[C@@H](C)[C@@](O)(O2)C(=O)C(=O)N2CCCC[C@H]2C(=O)O[C@H]([C@H](C)C[C@@H]2CC[C@@H](OCCO)[C@H](OC)C2)CC(=O)[C@H](C)/C=C(\C)[C@@H](O)[C@@H](OC)C(=O)[C@H](C)C[C@H](C)/C=C/C=C/C=C/1C [Everolimus]?
progression free survival (ER+ breast cancer): prolong progression free survival; efficacy (TNBC [10]): failed to show any demonstrable efficacy

What does the source list for CN1CC[C@@H](NC(=O)Nc2ccc(C#N)cc2)C[C@@H]1c1nc2ccccc2[nH]1 [Glasdegib]?
targeting of leukemia stem cells (leukemia stem cells): successfully target leukemia stem cells; downstream effect on GLI2 (GLI2): GLI2 inhibition

With CC(C)Cc1ccc([C@@H](C)C(=O)NS(C)(=O)=O)cc1 [Repartaxin] as the compound, how does the therapeutic efficacy (breast cancer) read?
Its therapeutic efficacy is “therapeutic efficacy”.

What about the therapeutic efficacy (gastric cancer) of the same compound?
Its therapeutic efficacy is “therapeutic efficacy”.

What about the “breast CSC activity” value [11] of the same compound?
The value was “successfully reduced breast CSC activity”.

What about the “therapeutic efficacy in combination” value ([11]; combined with Lapatinib) of the same compound?
Its value is “enhanced therapeutic efficacy when combined with Lapatinib”.

And the “decrease in breast CSC count” value [12]?
Its value is “more than 20%”.

With Durvalumab as the compound, how does the pCR rate (TNBC patients; predicted non-responders (MK167+FOXC1 mRNA)) read?
The pCR rate was 0%.

And the pCR rate (TNBC patients; predicted responders (MK167+FOXC1 mRNA))?
Its pCR rate is 75%.

And the pCR rate ([13]; predicted non-responders)?
Its pCR rate is 15.38%.

What about the “pCR I rate” value ([13]; predicted responders) of the same compound?
The value was 38.1%.

What about the “pCR II rate” value ([13]; predicted responders) of the same compound?
The value was 62.5%.

— US20250283178A1, “FOXC1 EXPRESSION AS A COMPLEMENTARY DIAGNOSTIC ASSAY FOR PREDICTING EFFICACY OF ONCOLOGY DRUGS AND DRUG COMBINATION REGIMENS AND METHODS FOR USE” (3N DIAGNOSTICS LTD., priority 2022, published 2025)
